For this assay, the target named is Programmed cell death 1 ligand 1 (Homo sapiens, UniProt Q9NZQ7). Description: Enzyme-Linked Immunosorbent Assay ELISA. The protocol:
96 Well plates were coated with 1 μg/mL of human PD-L1 (obtained from R&D) in PBS overnight at 4° C. The wells were then blocked with 2% BSA in PBS (W/V) with 0.05% TWEEN-20 for 1 hour at 37° C. The plates were washed 3 times with PBS/0.05% TWEEN-20 and the compounds were serial diluted (1:5) in dilution medium and added to the ELISA plates. Human PD-1 and biotin 0.3 μg/mL (ACRO Biosystems) were added and incubated for 1 hour at 37° C. then washed 3 times with PBS/0.05% TWEEN-20. A second block was performed with 2% BSA in PBS (W/V)/0.05% TWEEN-20 for 10 min at 37° C. and was washed 3 times with PBS/0.05% TWEEN-20. Streptavidin-HRP was added for 1 hour at 37° C. then washed 3 times with PBS/0.05% TWEEN-20. TMB substrate was added and reacted for 20 min at 37° C. A stop solution (2 N aqueous H2SO4) was added. The absorbance was read at 450 nm using a micro-plate spectrophotometer.
(In general: In an ELISA, binding on a coated surface is turned into a signal by an enzyme label.)

Chain of Programmed cell death 1 ligand 1 (Q9NZQ7 whole entry): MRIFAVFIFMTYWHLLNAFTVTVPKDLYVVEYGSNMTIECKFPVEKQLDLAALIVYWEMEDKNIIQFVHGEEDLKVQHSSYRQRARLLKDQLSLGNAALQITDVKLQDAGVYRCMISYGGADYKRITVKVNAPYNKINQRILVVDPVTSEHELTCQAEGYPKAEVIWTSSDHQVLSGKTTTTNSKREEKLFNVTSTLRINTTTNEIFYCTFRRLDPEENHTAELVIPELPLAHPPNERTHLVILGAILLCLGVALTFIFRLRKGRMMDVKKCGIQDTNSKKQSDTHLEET

Take `Cc1c(OCCCN2CCC(F)(F)CC2)cccc1-c1cccc2c1CC[C@@H]2Oc1cc(OCc2cncc(C#N)c2)c(CN[C@H](C(=O)O)[C@@H](C)O)cc1Cl` [US11708326, Compound TABLE 1.18]: the IC50 (usually the point on the concentration scale where inhibition reaches its midpoint) is “in the range around 252 nM”.
Take `Cc1c(OCCCN2CC[C@@H](O)[C@H](F)C2)cccc1-c1cccc2c1CC[C@@H]2Oc1cc(OCc2cncc(C#N)c2)c(CN[C@H](C(=O)O)[C@@H](C)O)cc1Cl` [US11708326, Compound TABLE 1.31]: the IC50 result was “in the range around 252 nM”.
`Cc1c(OCCCN2CC[C@H](O)[C@H](F)C2)cccc1-c1cccc2c1CC[C@@H]2Oc1cc(OCc2cncc(C#N)c2)c(CN[C@H](C(=O)O)[C@@H](C)O)cc1Cl` [US11708326, Compound TABLE 1.34]: the IC50 was below 5 nM.
In turn, `N#Cc1cncc(COc2cc(O[C@H]3CCc4c(-c5cccc(OCCCN6CC(F)C6)c5Cl)cccc43)c(Cl)cc2CN[C@@H]2CCCC[C@@H]2O)c1` [US11708326, Compound TABLE 1.92] came in with an IC50 below 5 nM.
Then `CCOc1cc(NC2CCc3c(-c4cccc(OCCCN5CCC(F)CC5)c4C)cccc32)c(Cl)cc1CN[C@@H](CO)C(=O)O` (stereo not given in full) [US11708326, Compound TABLE 1.117], with “in the range around 252 nM”; and `CC(CO)(NCc1cc(Cl)c(O[C@H]2CCc3c(-c4cccc(OCCCN5CCCCC5)c4Cl)cccc32)cc1OCc1cncc(C#N)c1)C(=O)O` (stereo not given in full) [US11708326, Compound TABLE 1.130], with below 5 nM; and `N#Cc1cncc(COc2cc(O[C@H]3CCc4c(-c5cccc(OCCCN6CC(O)C6)c5Cl)cccc43)c(Cl)cc2CN2CCCC3(C2)NC(=O)NC3=O)c1` (stereo not given in full) [US11708326, Compound TABLE 1.137], with below 5 nM.
The figure for `N#Cc1cncc(COc2cc(O[C@H]3CCc4c(-c5cccc(OCCCN6CC7(CC(O)C7)C6)c5Cl)cccc43)c(Cl)cc2CNC[C@@H]2CCC(=O)N2)c1` [US11708326, Compound TABLE 1.164] is below 5 nM.
The figure for `N#Cc1cncc(COc2cc(O[C@H]3CCc4c(-c5cccc(OCCCN6CC7(CC(O)C7)C6)c5Cl)cccc43)c(Cl)cc2CNC[C@H]2CCC(=O)N2)c1` [US11708326, Compound TABLE 1.165] is below 5 nM; for `Cc1c(OCCCN2CCC(C)CC2)cccc1-c1cccc2c1CC[C@@H]2Oc1cc(OCc2cc(C#N)cc(C#N)c2)c(CN[C@H]2CCC(=O)NC2)cc1Cl` [US11708326, Compound TABLE 1.296] it is “in the range around 252 nM”; for `Cc1c(OCCCN2[C@H](C)CCC[C@@H]2C)cccc1-c1cccc2c1CC[C@@H]2Oc1cc(OCc2cc(C#N)cc(C#N)c2)c(CN[C@H]2CCC(=O)NC2)cc1Cl` [US11708326, Compound TABLE 1.298] it is “in the range around 252 nM”.
As for `Cc1c(OCCCN2C(C)CCC2C)cccc1-c1cccc2c1CC[C@@H]2Oc1cc(OCc2cc(C#N)cc(C#N)c2)c(CN[C@H]2CCC(=O)NC2)cc1Cl` (stereo not given in full) [US11708326, Compound TABLE 1.304], the IC50 is below 5 nM.
`Cc1c(OCCCN2CCCC2C(C)C)cccc1-c1cccc2c1CC[C@@H]2Oc1cc(OCc2cc(C#N)cc(C#N)c2)c(CN[C@H]2CCC(=O)NC2)cc1Cl` (stereo not given in full) [US11708326, Compound TABLE 1.305]: the IC50 entry was “in the range around 252 nM”.
Consider `Cc1c(OCCCN2CCCC[C@@H]2C)cccc1-c1cccc2c1CC[C@@H]2Oc1cc(OCc2cc(C#N)cc(C#N)c2)c(CN[C@H]2CCC(=O)NC2)cc1Cl` [US11708326, Compound TABLE 1.315], for which the IC50 was below 5 nM.
For `Cc1c(OCCCN2CCC2(C)C)cccc1-c1cccc2c1CC[C@@H]2Oc1cc(OCc2cc(C#N)cc(C#N)c2)c(CN[C@H]2CCC(=O)NC2)cc1Cl` [US11708326, Compound TABLE 1.323], the IC50 is below 5 nM.
Compound `Cc1c(OCCCN2[C@H](C)CC[C@@H]2C)cccc1-c1cccc2c1CC[C@@H]2Oc1cc(OCc2cc(C#N)cc(C#N)c2)c(CN[C@H]2CCC(=O)NC2)cc1Cl` [US11708326, Compound TABLE 1.333] displayed an IC50 below 5 nM.
Then `Cc1c(OCCCN2[C@H](C)CC[C@H]2C)cccc1-c1cccc2c1CC[C@@H]2Oc1cc(OCc2cc(C#N)cc(C#N)c2)c(CN[C@H]2CCC(=O)NC2)cc1Cl` [US11708326, Compound TABLE 1.334], with below 5 nM.
`Cc1c(OCCCN2[C@@H](C)CC[C@@H]2C)cccc1-c1cccc2c1CC[C@@H]2Oc1cc(OCc2cc(C#N)cc(C#N)c2)c(CN[C@H]2CCC(=O)NC2)cc1Cl` [US11708326, Compound TABLE 1.335] came in with an IC50 below 5 nM.
As for `CCOc1cc(O[C@H]2CCc3c(-c4cccc(OCCCN5CCC5(C)C)c4C)cccc32)c(Cl)cc1CN(C)CC(=O)O` [US11708326, Compound TABLE 1.378], the IC50 entry is “in the range around 252 nM”.
The entry for `CCOc1cc(O[C@H]2CCc3c(-c4cccc(OCCCN5CCC5(C)C)c4C)cccc32)c(Cl)cc1CNCCC(=O)OC(C)C` [US11708326, Compound TABLE 1.393] is “in the range around 252 nM”.

(Values after BindingDB's records for patent US11708326 (Chemocentryx, 2023).)
